US8440814B2, “Derivatives of cyclodextrins, process for their preparation and their use in particular for solubilizing pharmacologically active substances” (Centre National de la Recherche Scientifique, priority 2003, dated 2013)
Values joined by “and” are separate entries in the source; they are usually repeats but may differ in a detail not shown here. Equal entries are not always repeated. Where two headings read alike, the source gives them in different places.

Experiments:
[1] = as described in WO 95/19994; cited from earlier work
solubility in water = assay type: physicochemical
[2] = solubilization of Taxotere in water by inclusion in the cyclodextrin derivative; assay type: physicochemical; conditions: 50 mmol·L^−1 of compound in sterile water; for solubility of the Taxotere in a solution of the compound: stirred at 70° C., stays in solution at ambient temperature
From the text: These inclusion complexes can be prepared for example by adding to a solution or a suspension of the compound of the invention of formula (I) the pharmacologically active molecule in solution or in the pure state. The inclusion complex thus formed can be isolated by freeze-drying.
In the case of the compounds of the taxol family, such as Taxotere®, it is also possible to disperse this product in the pure state in a sterile solution of a compound according to the invention.
Starting with Taxotere in the pure state, 2.1 mg ([…]) of this product is dispersed in 1 mL of a solution containing 50 mmol·L^−1 of compound No. 1 in sterile water, then the suspension obtained is stirred at 70° C. until a clear solution is obtained which indicates the complexing of the Taxotere.

[3] = target: concanavalin A (ConA) lectin (Canavalia ensiformis, UniProt P02866); assay type: binding
Description: The affinity of the thioureidocysteaminyl-cyclodextrins of the invention for specific membrane lectins was evaluated in vitro following the ELLA (Enzyme-Linked Lectin Assay) protocol. […] 2002, 102, pp. 555-578. This technique measures the capacity of a soluble mono- or oligosaccharide ligand to inhibit the association between a complementary lectin and another reference ligand fixed to a plastic support microplate.
The IC50 values are inversely proportional to the respective affinities.
The cells of a microtitre plate (Nunc-Immuno™ plates, MaxiSorp™) are loaded with 100 μL of a stock solution of yeast mannan (Sigma, 10 μg·mL^−1) in a saline phosphate buffer solution (PBS; pH 7.3 containing Ca^2+ 0.1 mM and Mn^2+ 0.1 mM) for one night at ambient temperature. The cells are washed (3×300 μL) with a buffer solution containing 0.05% (v/v) of Tween 20 (PBST). This washing protocol is repeated after each incubation during the test. A bovine serum albumin solution (BSA, 1%) in PBS (150 μL/cell) is then added to the cells followed by incubation for 1 hour at 37° C., then washed.
In order to determine the optimal lectin concentration for inhibition studies, 100 μL of a series of concanavalin A solutions marked with radish peroxidase of 10^−1 to 10^−5 mg·mL^−1 in PBS is added to the cells loaded with mannan, and treated as indicated above. After incubation at 37° C. for 1 hour, the plates are washed (PBST) and a solution (50 μL) of the diammonium salt of 2,2′-azinobis(3-ethylbenzothiazoline-6-sulphonic) acid (ABTS, 1 mg in 4 mL) in citrate buffer (0.2 M, pH 4.0 with 0.015% hydrogen peroxide) is added. The reaction is stopped after 20 minutes by adding 50 μL/cell of sulphuric acid 1 M and the absorbances are measured at 415 nm using an ELISA reader. The control cells contained citrate-phosphate buffer.
In a series of experiments ConA marked with radish peroxidase in an appropriate concentration as indicated above (60 μL/cell) is added to the solutions of each compound (60 μL/cell) in PBS sequentially diluted twice, in a Nunclon™ (Delta) microtitre plate which is incubated at 37° C. for 1 hour. The solutions (100 μL/cell) are then transferred onto a microtitre plate loaded with mannan and treated as indicated above, which is then incubated at 37° C. for 1 hour. The cells are washed (PBST) and the ABTS solution (50 μL/cell) is added. After 20 minutes, the reaction is stopped (sulphuric acid) and the absorbances are measured. The percentage of inhibition is calculated with the formula: […]

Compound: 6^I-S-α-maltosyl-6^I-thiocyclomaltoheptaose
- solubility in water of Taxotere on adding the cyclodextrin derivative to its aqueous suspension [1]: up to 6.5 g/L

Compound: Cl.Cl.Cl.Cl.Cl.Cl.Cl.NCCSC[C@H]1O[C@@H]2O[C@H]3[C@H](O)[C@@H](O)[C@@H](O[C@H]4[C@H](O)[C@@H](O)[C@@H](O[C@H]5[C@H](O)[C@@H](O)[C@@H](O[C@H]6[C@H](O)[C@@H](O)[C@@H](O[C@H]7[C@H](O)[C@@H](O)[C@@H](O[C@H]8[C@H](O)[C@@H](O)[C@@H](O[C@H]1[C@H](O)[C@H]2O)O[C@@H]8CSCCN)O[C@@H]7CSCCN)O[C@@H]6CSCCN)O[C@@H]5CSCCN)O[C@@H]4CSCCN)O[C@@H]3CSCCN [Compound No. 1, heptakis[6-S-(2-aminoethyl-6-thio)]cyclomalto heptaose heptahydrochloride]
- solubility in water (solubility in water): 500 g·L^−1 and 323 mmol·L^−1
- increase in the solubility of the Taxotere versus absence of cyclodextrin [2]: ~525 times
- solubility of the Taxotere in a solution of the compound [2]: 2100 µg/mL

Compound: OC[C@H]1O[C@H](NC(=S)NCCSC[C@H]2O[C@@H]3O[C@H]4[C@H](O)[C@@H](O)[C@@H](O[C@H]5[C@H](O)[C@@H](O)[C@@H](O[C@H]6[C@H](O)[C@@H](O)[C@@H](O[C@H]7[C@H](O)[C@@H](O)[C@@H](O[C@H]8[C@H](O)[C@@H](O)[C@@H](O[C@H]9[C@H](O)[C@@H](O)[C@@H](O[C@H]2[C@H](O)[C@H]3O)O[C@@H]9CSCCNC(=S)N[C@H]2O[C@H](CO)[C@@H](O)[C@H](O)[C@@H]2O)O[C@@H]8CSCCNC(=S)N[C@H]2O[C@H](CO)[C@@H](O)[C@H](O)[C@@H]2O)O[C@@H]7CSCCNC(=S)N[C@H]2O[C@H](CO)[C@@H](O)[C@H](O)[C@@H]2O)O[C@@H]6CSCCNC(=S)N[C@H]2O[C@H](CO)[C@@H](O)[C@H](O)[C@@H]2O)O[C@@H]5CSCCNC(=S)N[C@H]2O[C@H](CO)[C@@H](O)[C@H](O)[C@@H]2O)O[C@@H]4CSCCNC(=S)N[C@H]2O[C@H](CO)[C@@H](O)[C@H](O)[C@@H]2O)[C@@H](O)[C@@H](O)[C@@H]1O [Compound No. 2]
- IC50 [3]: 175 µM
- Relative affinity [3]: 4.9
- Relative molar affinity [3]: 0.7

Compound: OC[C@H]1O[C@H](OCC(CO[C@H]2O[C@H](CO)[C@@H](O)[C@H](O)[C@@H]2O)(CO[C@H]2O[C@H](CO)[C@@H](O)[C@H](O)[C@@H]2O)NC(=S)NCCSC[C@H]2O[C@@H]3O[C@H]4[C@H](O)[C@@H](O)[C@@H](O[C@H]5[C@H](O)[C@@H](O)[C@@H](O[C@H]6[C@H](O)[C@@H](O)[C@@H](O[C@H]7[C@H](O)[C@@H](O)[C@@H](O[C@H]8[C@H](O)[C@@H](O)[C@@H](O[C@H]9[C@H](O)[C@@H](O)[C@@H](O[C@H]2[C@H](O)[C@H]3O)O[C@@H]9CSCCNC(=S)NC(CO[C@H]2O[C@H](CO)[C@@H](O)[C@H](O)[C@@H]2O)(CO[C@H]2O[C@H](CO)[C@@H](O)[C@H](O)[C@@H]2O)CO[C@H]2O[C@H](CO)[C@@H](O)[C@H](O)[C@@H]2O)O[C@@H]8CSCCNC(=S)NC(CO[C@H]2O[C@H](CO)[C@@H](O)[C@H](O)[C@@H]2O)(CO[C@H]2O[C@H](CO)[C@@H](O)[C@H](O)[C@@H]2O)CO[C@H]2O[C@H](CO)[C@@H](O)[C@H](O)[C@@H]2O)O[C@@H]7CSCCNC(=S)NC(CO[C@H]2O[C@H](CO)[C@@H](O)[C@H](O)[C@@H]2O)(CO[C@H]2O[C@H](CO)[C@@H](O)[C@H](O)[C@@H]2O)CO[C@H]2O[C@H](CO)[C@@H](O)[C@H](O)[C@@H]2O)O[C@@H]6CSCCNC(=S)NC(CO[C@H]2O[C@H](CO)[C@@H](O)[C@H](O)[C@@H]2O)(CO[C@H]2O[C@H](CO)[C@@H](O)[C@H](O)[C@@H]2O)CO[C@H]2O[C@H](CO)[C@@H](O)[C@H](O)[C@@H]2O)O[C@@H]5CSCCNC(=S)NC(CO[C@H]2O[C@H](CO)[C@@H](O)[C@H](O)[C@@H]2O)(CO[C@H]2O[C@H](CO)[C@@H](O)[C@H](O)[C@@H]2O)CO[C@H]2O[C@H](CO)[C@@H](O)[C@H](O)[C@@H]2O)O[C@@H]4CSCCNC(=S)NC(CO[C@H]2O[C@H](CO)[C@@H](O)[C@H](O)[C@@H]2O)(CO[C@H]2O[C@H](CO)[C@@H](O)[C@H](O)[C@@H]2O)CO[C@H]2O[C@H](CO)[C@@H](O)[C@H](O)[C@@H]2O)[C@@H](O)[C@@H](O)[C@@H]1O [Compound No. 3, heptakis[6-S-[2-N′-tris(α-D-mannopyranosyloxymethyl)methylthioureido]ethyl-6-thio]cyclomaltoheptaose]
- Relative affinity [3]: 41
- Relative molar affinity [3]: 2.0

Compound: COC1OC(CO)C(O)C(O)C1O [Me-α-D-Glcp, methyl-α-D-glucopyranoside, reference compound]
- Relative affinity ([3]; relative to Me-α-D-Glcp = 1): 1
- Relative molar affinity ([3]; relative to Me-α-D-Glcp = 1): 1

Compound: OCC1OC(NC(=S)NCC2OC3OC4C(CNC(=S)NC5OC(CO)C(O)C(O)C5O)OC(OC5C(CNC(=S)NC6OC(CO)C(O)C(O)C6O)OC(OC6C(CNC(=S)NC7OC(CO)C(O)C(O)C7O)OC(OC7C(CNC(=S)NC8OC(CO)C(O)C(O)C8O)OC(OC8C(CNC(=S)NC9OC(CO)C(O)C(O)C9O)OC(OC9C(CNC(=S)NC%10OC(CO)C(O)C(O)C%10O)OC(OC2C(O)C3O)C(O)C9O)C(O)C8O)C(O)C7O)C(O)C6O)C(O)C5O)C(O)C4O)C(O)C(O)C1O [heptakis(6-deoxy-6-α-D-mannopyranosylthioureido)cyclomaltoheptaose, reference compound]
- inhibition of the association between concanavalin A and yeast mannan ([3]; 175 µM): 8%

Compound: heptakis[6-S-[2-N′-[2,2,2-tris[5-(1-thio-α-D-mannopyranosyl)-2-oxapentyl]ethyl]thioureido]ethyl-6-thio]cyclomaltoheptaose [Compound No. 4]
- Relative affinity [3]: 173
- Relative molar affinity [3]: 8.2
- increase in the solubility of the Taxotere versus absence of cyclodextrin [2]: ~500 times
- solubility of the Taxotere in a solution of the compound [2]: 2000 µg/mL

Compound: heptakis[6-S-[2-N′-[2,2-bis[5-(1-thio-α-D-mannopyranosyl)-2-oxapentyl]-2-[5-(1-thio-β-D-glucopyranosyl)-2-oxapentyl]ethyl]thioureido]ethylthio]cyclomaltoheptaose [Compound No. 7]
- Relative affinity [3]: 67
- Relative molar affinity [3]: 4.8

Compound: heptakis[6-S-[2-N′-[2-[5-(1-thio-α-D-manno pyranosyl)-2-oxapentyl]-2,2-bis[5-(1-thio-β-D-glucopyranosyl)-2-oxapentyl]ethyl]thioureido]ethyl-6-thio]cyclomaltoheptaose [Compound No. 6]
- Relative affinity [3]: 48
- Relative molar affinity [3]: 6.9
- recognition by ConA (in words) [3]: not recognized by ConA
